# Source: ChEMBL document CHEMBL4706659, “Design, synthesis and biological evaluation of novel 2,4-diaryl pyrimidine derivatives as selective EGFR inhibitors” (Eur J Med Chem, 2021)
# How the values were obtained:
# PC-9 [1] = assay: Antiproliferative activity against human PC-9 cells harboring EGFR L858R mutant by MTT assay; type: functional, cell-based
# NCI-H1975 [2] = assay: Antiproliferative activity against human NCI-H1975 cells harboring EGFR T790M/L858R mutant by MTT assay; type: functional, cell-based
# NCI-H292 = assay: Antiproliferative activity against human NCI-H292 cells harboring wild-type EGFR by MTT assay; type: functional, cell-based
# [3] = Selectivity ratio of IC50 for antiproliferative activity against human NCI-H292 cells harboring wild-type EGFR to IC50 for antiproliferative activity against human NCI-H1975 cells harboring EGFR T790M/L858R mutant; type: functional
# HK-2 = assay: Cytotoxicity against HK-2 cells assessed as reduction in cell viability by MTT assay; type: cell-based; conditions: Homo sapiens
# [4] = Cytotoxicity against HLF cells assessed as reduction in cell viability by MTT assay; type: cell-based; conditions: Homo sapiens
# [5] = Cytotoxicity against HEK293-A cells assessed as reduction in cell viability by MTT assay; type: cell-based; conditions: Homo sapiens
# NCI-H1975 [6] = assay: Antitumor activity against human NCI-H1975 cells harboring EGFR T790M/L858R mutant xenografted in nude mouse assessed as tumor volume at 15 mg/kg, po administered once daily for 7 days (reference value: 843 mm3); type: functional; conditions: time 7 day
# NCI-H1975 [7] = assay: Antitumor activity against human NCI-H1975 cells harboring EGFR T790M/L858R mutant xenografted in nude mouse assessed as tumor growth inhibition at 15 mg/kg, po administered once daily for 7 days relative to control; type: functional; conditions: time 7 day
# PC-9 [8] = assay: Antiproliferative activity against human PC-9 cells; type: functional, cell-based
# [9] = Antiproliferative activity against human RPC9 cells; type: functional, cell-based
# BT-474 = assay: Antiproliferative activity against human BT-474 cells; type: functional, cell-based
# SK-BR-3 = assay: Antiproliferative activity against human SK-BR-3 cells; type: functional, cell-based
# NCI-H1975 [10] = assay: Antiproliferative activity against human NCI-H1975 cells; type: functional, cell-based
# [11] = Half life in Sprague-Dawley rat at 10 mg/kg, po administered as single dose; type: ADME, organism-based; conditions: in vivo
# [12] = Tmax in Sprague-Dawley rat at 10 mg/kg, po administered as single dose; type: ADME, organism-based; conditions: in vivo
# [13] = Cmax in Sprague-Dawley rat at 10 mg/kg, po administered as single dose; type: ADME, organism-based; design: route oral, dose 10 mg/kg; conditions: in vivo
# [14] = AUC (0 to t) in Sprague-Dawley rat at 10 mg/kg, po administered as single dose; type: ADME, organism-based; design: dose 10 mg/kg; conditions: in vivo
# [15] = AUC (0 to infinity) in Sprague-Dawley rat at 10 mg/kg, po administered as single dose; type: ADME, organism-based; design: time infinity, route oral, dose 10 mg/kg; conditions: in vivo
# [16] = MRT in Sprague-Dawley rat at 10 mg/kg, po administered as single dose; type: ADME, organism-based; conditions: in vivo
# [17] = Oral bioavailability in Sprague-Dawley rat at 10 mg/kg administered as single dose; type: ADME, organism-based; conditions: in vivo
# [18] = Half life in Sprague-Dawley rat at 2 mg/kg, iv administered as single dose; type: ADME, organism-based; conditions: in vivo
# [19] = Cmax in Sprague-Dawley rat at 2 mg/kg, iv administered as single dose; type: ADME, organism-based; design: route intravenous, dose 2 mg/kg; conditions: in vivo
# [20] = AUC (0 to t) in Sprague-Dawley rat at 2 mg/kg, iv administered as single dose; type: ADME, organism-based; design: dose 2 mg/kg; conditions: in vivo
# [21] = AUC (0 to infinity) in Sprague-Dawley rat at 2 mg/kg, iv administered as single dose; type: ADME, organism-based; design: route intravenous, time infinity, dose 2 mg/kg; conditions: in vivo
# [22] = Clearance in Sprague-Dawley rat at 2 mg/kg, iv administered as single dose; type: ADME, organism-based; conditions: in vivo
# [23] = MRT in Sprague-Dawley rat at 2 mg/kg, iv administered as single dose; type: ADME, organism-based; conditions: in vivo
# [24] = Antiproliferative activity against human DiFi cells; type: functional, cell-based
IC50 (PC-9 [1]),IC50 (NCI-H1975 [2]),IC50 (NCI-H292),SMILES,Ratio IC50 [3],other results
9 nM,8 nM,157 nM,C=CC(=O)Nc1cc(Nc2ncc(Cl)c(-c3cn(C4CC4)c4ccccc34)n2)c(OC)cc1SCCN(C)C,19.6,
648 nM,543 nM,9770 nM,C=CC(=O)Nc1cc(Nc2nccc(-c3cn(C4CC4)c4ccccc34)n2)c(OC)cc1OCCSC,18,
203 nM,445 nM,3760 nM,C=CC(=O)Nc1cc(Nc2nccc(-c3cn(C4CC4)c4ccccc34)n2)c(OC)cc1OCCC[S+](C)[O-] (stereo not drawn),8.5,
5 nM,9 nM,156 nM,C=CC(=O)Nc1cc(Nc2ncc(Cl)c(-c3cn(C4CC4)c4ccccc34)n2)c(OC)cc1[S+]([O-])CCN(C)C (stereo not drawn),17.3,
734 nM,333 nM,> 10000 nM,C=CC(=O)Nc1cc(Nc2nccc(-c3cn(C4CC4)c4ccccc34)n2)c(OC)cc1N1CCSCC1,>30,
5 nM,8 nM,432 nM,C=CC(=O)Nc1cc(Nc2nccc(-c3cn(C4CC4)c4ccccc34)n2)c(OC)cc1OCCN(C)C,54,

# Second part, the compound before the results:
SMILES,IC50 (PC-9 [1]),IC50 (NCI-H1975 [2]),IC50 (NCI-H292),Ratio IC50 [3],other results
C=CC(=O)Nc1cc(Nc2nccc(-c3cn(C4CC4)c4ccccc34)n2)c(OC)cc1OCCCSC,2320 nM,1120 nM,> 10000 nM,>8.9,
C=CC(=O)Nc1cc(Nc2nccc(-c3cn(C)c4ccccc34)n2)c(OC)cc1N(C)CCN(C)C [OSIMERTINIB],[…],[…],924 nM,,IC50 (HK-2): 2720 nM; IC50 [4]: 3350 nM; IC50 [5]: 2250 nM; Activity (NCI-H1975 [6]): 21 mm3; TGI (NCI-H1975 [7]): 97.64%
C=CC(=O)Nc1cc(Nc2nccc(-c3cn(C4CC4)c4ccccc34)n2)c(OC)cc1N(C)CCO,64 nM,74 nM,1690 nM,22.9,
CN(C)C/C=C/C(=O)Nc1cc2c(Nc3ccc(F)c(Cl)c3)ncnc2cc1O[C@H]1CCOC1 [AFATINIB],,,,,IC50 (PC-9 [8]): 0.3 nM; IC50 [9]: 164 nM
C=CC(=O)Nc1cc(Nc2nccc(-c3cn(C4CC4)c4ccccc34)n2)c(OC)cc1N(C)CCSC,1320 nM,1300 nM,2630 nM,2,
COc1cc2ncnc(Nc3ccc(F)c(Cl)c3)c2cc1NC(=O)/C=C/CN1CCCCC1 [DACOMITINIB ANHYDROUS],,,,,IC50 (BT-474): 18 nM; IC50 (SK-BR-3): 15 nM
C=CC(=O)Nc1cccc(Oc2nc(Nc3ccc(N4CCN(C)CC4)cc3OC)ncc2Cl)c1,,,,,IC50 (PC-9 [8]): 36 nM; IC50 (NCI-H1975 [10]): 47 nM
C=CC(=O)Nc1cc(Nc2nccc(-c3cn(C4CC4)c4ccccc34)n2)c(OC)cc1N(C)CC[S+](C)[O-] (stereo not drawn),261 nM,411 nM,1140 nM,2.8,
C=CC(=O)Nc1cc(Nc2nccc(-c3cn(C)c4ccccc34)n2)c(OC)cc1[S+]([O-])CCN(C)C (stereo not drawn),,,,,half-life [11]: 1.43 h; Tmax [12]: 1 h; Cmax [13]: 275 ng/mL; AUC(0-t) [14]: 635 ng·h/mL; AUC(0-inf) [15]: 652 ng·h/mL; MRT [16]: 2.07 h; bioavailability [17]: 31.6%; half-life [18]: 0.62 h; Cmax [19]: 789 ng/mL; AUC(0-t) [20]: 402 ng·h/mL; AUC(0-inf) [21]: 406 ng·h/mL; clearance [22]: 82.2 mL/min/kg; MRT [23]: 0.89 h
C=CC(=O)Nc1cc(Nc2nccc(-c3cn(C4CC4)c4ccccc34)n2)c(OC)cc1SCCN(C)C,44 nM,21 nM,674 nM,32.1,
C=CC(=O)Nc1cccc(Nc2nc(Nc3ccc(N4CCN(C(C)=O)CC4)cc3OC)ncc2C(F)(F)F)c1 [ROCILETINIB],,,,,IC50 (PC-9 [8]): 84 nM; IC50 (NCI-H1975 [10]): 23 nM
C#Cc1cccc(Nc2ncnc3cc(OCCOC)c(OCCOC)cc23)c1 [ERLOTINIB],,,,,IC50 [24]: 20 nM
C=CC(=O)Nc1cc(Nc2nccc(-c3cn(C4CC4)c4ccccc34)n2)c(OC)cc1OCC[S+](C)[O-] (stereo not drawn),435 nM,544 nM,4810 nM,8.8,
